# Key:
# ESC-T cells [1] = assay: In vitro decidualization of immortalized human ESC-T cells (decidualization marker mRNA, morphology); assay type: cell-based
# Excerpt: Decidualization in human cells was monitored by measuring the mRNA expression of two decidualization markers, PRL and IGFBP1.
# This NADP+ analog inhibits two enzymes in the PPP, G6PD and 6GPDH, which utilize NADP+ and convert it into NADPH.
# Two major results of the PPP are the production of ribose 5-phosphate and regeneration of NADPH. Production of ribose 5-phosphate is a central component in the de novo synthesis of ribonucleosides (RNs) and deoxyribonucleosides (DRNs). […] To address this question, ESC-T cultures were used and the differentiation media was supplemented with RNs and DRNs during treatment with PPP inhibitors.
# (§1) Endometrial tissue was obtained from human uteri after hysterectomy conducted for benign disease or from endometrial biopsies. Informed consent was obtained from each patient before surgery and protocols were approved by the Human Research Protection Office of Washington University (HRPO#07-0949). Tissues were placed in HBSS and transported to the laboratory. hESCs were isolated and cultured as previously described. In vitro decidualization was performed as previously described with several changes. Cells were seeded in 6-well plates at 2×10^5 cells/well in DMEM:F12 without phenol red, supplemented with 2% heat-inactivated charcoal dextran-stripped calf serum (HyClone) and 50 μg/ml penicillin/streptomycin (Cambrex Bio Science). Cells were treated with 1 μM medroxyprogesterone-17-acetate (MPA) (Sigma) and 0.5 mM N^6, 2′-O-Dibutyryladenosine 3′,5′-cyclic monophosphate sodium salt (db-cAMP) (Sigma). Control samples received 0.1% ethanol vehicle control.
# Human immortalized ESC (ESC telomerase immortalized, ESC-T), were decidualized in vitro in the presence of 0, 2.5 or 5 mM GlcN for 9 days.
# human primary ESCs = assay: In vitro decidualization of human primary ESCs (decidualization marker mRNA); assay type: cell-based
# Excerpt: (§2) In order to confirm that this is not a side effect of ESC immortalization with telomerase overexpression in this human cell line, the effect of DHEA on decidualization of primary ESC cultures from mouse and human uteri was also investigated. Murine ESCs were isolated from the gravid uterus at 4 days post coitus and cultured in vitro for 3 days to induce decidualization as described in the Methods. […] The human primary ESCs were isolated from uteri following hysterectomy for benign disease as outlined in the Methods and cultured in decidualization media for 9 days.
# Control samples received 0.1% ethanol vehicle control.
# ESC-T = assay: Viability of ESC-T with GlcN (MTT assay and flow cytometry); assay type: cell-based, human; conditions: 0, 2.5 or 5 mM GlcN for 9 days
# Procedure: (§3) Human immortalized ESC (ESC telomerase immortalized, ESC-T), were decidualized in vitro in the presence of 0, 2.5 or 5 mM GlcN for 9 days. […] Thus, it was concluded that perturbation of the PPP activity by GlcN might lead to the failure of ESC decidualization and thus possibly be one of the first non-hormonal inhibitors of decidualization. Finally, in vivo evidence is provided that female mice with a time-release GlcN pellet (15-1500 μg) implanted in one uterine horn, delivered fewer live pups per litter over a 60-day period than those with control pellet implantation (8.25 vs 4.23 pups/litter; FIG. 25).
# G6PDH = target: T1, G6PDH (Homo sapiens, UniProt P11413); assay: G6PDH activity in decidualized ESC-T cells exposed to GlcN; assay type: cell-based
# T1 construct: endogenous in cells; host or cells: human telomerase-immortalized endometrial stromal cells (ESC-T)
# Procedure: as §3
# ICR female mice [2] = assay: Intrauterine time-release GlcN pellet and pups per litter; assay type: in vivo, mouse; conditions: time-release GlcN pellet (15-1500 μg) in one uterine horn; 60-day period
# Procedure: FIG. 25A-B graphically depicts decreased birth rate by glucosamine in ICR mice. 6 weeks old ICR female mice were implanted with a control or GlcN (15-1500 μg) pellet on one uterine horn and (A) with or (B) without the hysterectomy on the other uterine horn. Pups per litter in pellet implanted female mice crossed with males were recorded. **, P<0.01.
# as §3
# human ESCs = system: human ESCs
# Procedure: as §1
# human immortalized ESCs = conditions: 1 μM and 1.5 μM IA; 5-3H-glucose for four hours
# Procedure: In order to confirm inhibition of glycolysis, human immortalized ESCs were incubated in the presence of 5-^3H-glucose for four hours and the amount of ^3H2O production (H2O produced from the 5th hydrogen of glucose is a product of glycolysis) in ESCs exposed to different concentrations of IA was measured (FIG. 2b).
# murine ESCs = assay: In vitro decidualization of primary murine ESCs (Prp mRNA); assay type: cell-based, mouse; conditions: 3 days in vitro culture
# Excerpt: as §2
# For in vitro decidualization of ESCs, female mice were sacrificed at 4dpc. Pregnancy was confirmed by flushing dissected uterine horns and ostia with HBSS and observing for presence of blastocysts. Uteri confirmed for pregnancy were cut into 1 mm^3 pieces and incubated in Dulbecco's modified Eagle's Medium:F12 medium (DMEM:F12) without phenol red supplemented with 2 g/liter Collagenase Type I (Gibco) for 60-90 min at 37° C. Tissues were vortexed every 15 min during incubation. Following incubation, the solution was passed through a 40 μm sieve (BD Falcon) and centrifuged at 1100 rpm for 5 min. […]
# hESC-Ts = assay: Radiolabeled glucose flux (1-14C, 6-14C, 5-3H-glucose) in hESC-Ts; assay type: cell-based, human
# Procedure: For these experiments, hESCs immortalized via overexpression of telomerase (hESC-Ts) were used. […] The response of these cells to PPP inhibitors was also tested in order to confirm their similar dependence on the pathway for differentiation. In order to determine glucose flux through the various metabolic pathways in ESCs the metabolic fates of 1-^14C—, 6-^14C—, and 5-^3H-glucose was followed. hESC-Ts were incubated for 3 h with one of the radiolabled glucoses and production of ^14CO2 or ^3H2O was compared between the four treatment groups, control, decidualized, and decidualized with 2 μM or 5 μM 6-AN (FIG. 6). […] This was an indication that the flux through the TCA cycle or PPP was decreased in the inhibitor-treated ESCs. […] Therefore, inhibiting G6PD with 6-AN has no effect on TCA flux, but directly lowers the metabolism of glucose through PPP. The ratio of 1-C:6-C, which summarizes the relative preference of the PPP, can then be seen as decreasing in the presence of the inhibitor 6-AN.
# This indicates an increase in the amount of glucose entering glycolysis without continuing into the TCA cycle, possibly being converted into lactate.
# ESC-T cells [3] = assay: EdU incorporation proliferation assay; assay type: cell-based, human
# Excerpt: Other groups have shown that DHEA has anti-proliferative effects in a number of cell-lines and tissues. Thus, it was hypothesized that perhaps the PPP inhibitors prevent the proliferation of ESC-Ts and that this is an additional effect, independent of their role in decidualization inhibition. In a human uterus the stromal cells go through a cyclical oscillation between proliferation and differentiation, determined by the hormonal milieu. ESC-Ts in vitro remain in the proliferative state until they are exposed to differentiation media, which causes the cells to halt cell division and enter differentiation. Proliferation of ESC-T cells were monitored by EdU incorporation in vitro, which indicates entry into the S-phase of the cell cycle, in the absence of the differentiation hormones.
# Following 60 hr of the treatment indicated in the experiment, EdU was added to the culture medium at a concentration of […]. Cells were harvested and stained using the Click-iT EdU Flow Cytometry Kit (Invitrogen). Quantitative data were collected using a BD FACSCalibur flow cytometer (Becton Dickinson, San Jose, Calif.) and analyzed with FlowJo software (TreeSTar, Inc., Ashland, Oreg.). For confocal microscopy, the cells were stained on coverslips using the same protocol. Nuclei were counterstained with TOPRO-iodide (Molecular probes) at a 1:500 dilution. Cells were mounted on slides using Vectashield (Vector Labs) and visualized using a Nikon C1 microscope.
# ICR female mice [4] = assay: Intrauterine DHEA or 6-AN pellet and pregnancy outcome; assay type: in vivo, mouse
# Procedure: ICR female mice had either placebo (n=26), DHEA (1.5 mg/60 days)(n=20), or 6-AN pellets (150, 15, 1.5 mcg/60 days)(n=24) placed into the uterine horn after index delivery. Females were then mated and litter size was measured over the following 120 days post pellet. Mice were housed according to the Institutional Animal Care and use Committee and NIH guidelines. Day to first litter, number of litters, number of pups, average pups/litter were recorded. Serum DHEA levels were quantified (Alpco, Salem, N.H.). All pellets (placebo, DHEA, 6-AN) were custom-formulated (Innovative Research, Inc).
# [5] = decidualized cells with 2 μM or 5 μM 6-AN, 3 h
# T1 sequence (P11413 whole entry): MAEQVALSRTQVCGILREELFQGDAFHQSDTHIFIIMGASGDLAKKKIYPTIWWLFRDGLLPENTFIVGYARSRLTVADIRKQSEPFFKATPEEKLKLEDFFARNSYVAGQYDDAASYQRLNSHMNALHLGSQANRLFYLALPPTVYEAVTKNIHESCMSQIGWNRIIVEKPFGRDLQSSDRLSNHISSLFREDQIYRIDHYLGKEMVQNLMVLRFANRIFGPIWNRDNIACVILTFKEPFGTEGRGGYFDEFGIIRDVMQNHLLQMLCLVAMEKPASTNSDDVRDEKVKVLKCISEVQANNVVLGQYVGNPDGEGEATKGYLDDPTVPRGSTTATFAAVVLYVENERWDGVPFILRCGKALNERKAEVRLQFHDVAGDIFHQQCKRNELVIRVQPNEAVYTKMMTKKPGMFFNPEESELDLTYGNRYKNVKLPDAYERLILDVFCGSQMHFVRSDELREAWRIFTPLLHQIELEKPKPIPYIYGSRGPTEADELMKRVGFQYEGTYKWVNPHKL
compound,measurement,setting,value
"N[C@H]1C(O)O[C@H](CO)[C@@H](O)[C@@H]1O (some centres unmarked) [GlcN, glucosamine]","mRNA expression of prolactin, somatostatin, interleukin-15, left-right determination factor 2, tissue inhibitor of metalloproteinase 3","ESC-T cells [1]; GlcN 2.5 or 5 mM, quantitative RT-PCR",significantly lower expression levels
same,Expression levels of PRL and SMST over time,"ESC-T cells [1]; GlcN, day 3 through day 9",decreased the expression levels
same,"mRNA expression of prolactin, somatostatin, interleukin-15, left-right determination factor 2, tissue inhibitor of metalloproteinase 3","human primary ESCs; GlcN, day 9 of culture",significantly lower expression levels
same,Viability / proliferation,ESC-T,viability similar to control cells
same,G6PDH activity vs control cells,G6PDH,significantly lower
same,Live pups per litter,ICR female mice [2],4.23 pups/litter
"O=C(O)CI [IA, Iodoacetate]",Decidualization assessed by Prl marker expression,human ESCs; IA concentrations below the toxic threshold,not affected
same,Concentration inducing cell death,human ESCs; within 24 hr of administration,≥ 2000 nM
same,Reduction of flux of glucose through glycolysis,human immortalized ESCs,40%
"NC(=O)c1ccc(N)nc1 [6-AN, 6-aminonicotinamide]",Expression of PRL and IGFBP,"ESC-T cells [1]; 10 μM 6AN, day 3 to day 9 in culture",inhibited
same,Prp mRNA expression,murine ESCs,decreased Prp expression
same,Expression of PRL and IGFBP1,human primary ESCs; 9 days in decidualization media,decreased
same,Metabolism of glucose labeled at the C-1 position (14CO2),hESC-Ts; [5],lower in the decidualized cells exposed to 6-AN in a concentration dependent manner
same,Metabolism of the 6-C labeled glucose (14CO2),hESC-Ts; [5],not affected
same,Glycolytic flux of 5-3H labeled glucose,hESC-Ts; decidualized cells with 5 μM 6-AN,returned almost to the same levels as the control
same,Ratio of 1-C:6-C (relative preference of the PPP),hESC-Ts; presence of 6-AN,decreasing
same,EdU-positive nuclei vs DMSO control,"ESC-T cells [3]; 100 μM DHEA, 50 μM 6AN",drastic decrease
same,Proliferation by EdU geometric mean fluorescence intensity (flow cytometry),ESC-T cells [3]; 4 independent experiments,decreases proliferation of ESC-Ts in a concentration dependent manner
same,Reduction in average pup/litter size,"ICR female mice [4]; 6-AN pellet, not significant from control (p=0.4)",37.7%
same,Average time to first litter,"ICR female mice [4]; intrauterine pellet: DHEA 1.5 mg/60 days, 6-AN 150, 15, 1.5 mcg/60 days, controls 27 days",34 days
